From patent US20130029981A1, “COMPOUNDS, COMPOSITIONS, AND METHODS FOR CONTROLLING BIOFILMS” (Katholieke Universiteit Leuven, priority 2009, published 2013) come the findings set out here.

What all share (assay): Bioscreen assay: influence on planktonic growth curve
In assay [1] the test system is Pseudomonas aeruginosa PA14. The format is cell-based. Also noted: key: x: no influence on planktonic growth at the IC50 for biofilm inhibition; planktonic growth is retarded at the IC50 for biofilm inhibition. The following applies: planktonic growth at the IC50 for biofilm inhibition, 25° C. From the text: Some of the tested compounds show a concentration range in which biofilm formation is inhibited but no effect on planktonic growth is observed. These compounds are particularly interesting for prevention of biofilm formation since the development of resistance against these compounds is less likely. Table 8 indicates whether the different compounds have an effect on the planktonic growth of the bacteria at the IC50 for biofilm inhibition. To construct Table 8, the effect of the tested compounds on the growth curve of the bacteria was determined at a concentration equal to the IC50 for biofilm inhibition, by using the Bioscreen system available from Oy Growth Curves Ab Ltd). The Bioscreen device from Oy Growth Curves Ab Ltd was used for measuring the influence of the chemical compounds on the planktonic growth of Salmonella Typhimurium and Pseudomonas aeruginosa. The Bioscreen is a computer controlled incubator/reader/shaker that uses 10×10 well microtiter plates and measures light absorbance of each well at a specified wave length in function of time. An overnight culture of S. […] The absorbance of each well was measured at 600 nm each 15 minutes. […] To construct this table the effect of the compounds on the growth curve of the bacteria was determined at a concentration equal to the IC50 for biofilm inhibtion, by using the Bioscreen system from Oy Growth Curves Ab Ltd.

The subject of assay [2] is S. Typhimurium ATCC14028. In kind it is cell-based, Salmonella Typhimurium. Also noted: key: x: no influence on planktonic growth at the IC50 for biofilm inhibition; planktonic growth is retarded at the IC50 for biofilm inhibition. The following applies: planktonic growth at the IC50 for biofilm inhibition, 25° C. From the text: Some of the tested compounds show a concentration range in which biofilm formation is inhibited but no effect on planktonic growth is observed. These compounds are particularly interesting for prevention of biofilm formation since the development of resistance against these compounds is less likely. Table 8 indicates whether the different compounds have an effect on the planktonic growth of the bacteria at the IC50 for biofilm inhibition. To construct Table 8, the effect of the tested compounds on the growth curve of the bacteria was determined at a concentration equal to the IC50 for biofilm inhibition, by using the Bioscreen system available from Oy Growth Curves Ab Ltd). The Bioscreen device from Oy Growth Curves Ab Ltd was used for measuring the influence of the chemical compounds on the planktonic growth of Salmonella Typhimurium and Pseudomonas aeruginosa. The Bioscreen is a computer controlled incubator/reader/shaker that uses 10×10 well microtiter plates and measures light absorbance of each well at a specified wave length in function of time. An overnight culture of S. […] The broth used was TSB 1/20 for the experiments at 16° C. and 25° C. For experiments at 37° C. CFA medium was used for S. […] As a control 3 μl of the appropriate solvent (DMSO or EtOH) was also added to the plate in 3- or 4-fold. The microtiter plate was incubated in the Bioscreen device at 16° C., 25° C. or 37° C. for at least 36 hours, with continious medium shaking. The absorbance of each well was measured at 600 nm each 15 minutes. Excel was used to generate the growth curves for treated the treated wells and the untreated control wells. Some of the compounds show a concentration range in which biofilm formation is inhibited but no effect on the planktonic growth is observed. […] To construct this table the effect of the compounds on the growth curve of the bacteria was determined at a concentration equal to the IC50 for biofilm inhibtion, by using the Bioscreen system from Oy Growth Curves Ab Ltd.

Assay [3] relates to S. Typhimurium ATCC14028. In kind it is cell-based, Salmonella Typhimurium. Also noted: key: x: no influence on the planktonic growth at the IC50 for biofilm inhibition; ∘: planktonic growth is retarded at the IC50 for biofilm inhibition. The conditions noted are these: planktonic growth at the IC50 for biofilm inhibition, 25° C. From the text: (§1) Some of the tested compounds show a concentration range in which biofilm formation is inhibited but no effect on planktonic growth is observed. These compounds are particularly interesting for prevention of biofilm formation since the development of resistance against these compounds is less likely. Table 8 indicates whether the different compounds have an effect on the planktonic growth of the bacteria at the IC50 for biofilm inhibition. To construct Table 8, the effect of the tested compounds on the growth curve of the bacteria was determined at a concentration equal to the IC50 for biofilm inhibition, by using the Bioscreen system available from Oy Growth Curves Ab Ltd). The Bioscreen device from Oy Growth Curves Ab Ltd was used for measuring the influence of the chemical compounds on the planktonic growth of Salmonella Typhimurium and Pseudomonas aeruginosa. The Bioscreen is a computer controlled incubator/reader/shaker that uses 10×10 well microtiter plates and measures light absorbance of each well at a specified wave length in function of time. An overnight culture of S. […] The broth used was TSB 1/20 for the experiments at 16° C. and 25° C. For experiments at 37° C. CFA medium was used for S. […] As a control 3 μl of the appropriate solvent (DMSO or EtOH) was also added to the plate in 3- or 4-fold. The microtiter plate was incubated in the Bioscreen device at 16° C., 25° C. or 37° C. for at least 36 hours, with continious medium shaking. The absorbance of each well was measured at 600 nm each 15 minutes. Excel was used to generate the growth curves for treated the treated wells and the untreated control wells. Some of the compounds show a concentration range in which biofilm formation is inhibited but no effect on the planktonic growth is observed. Table 14 indicates if the different compounds have an effect on the planktonic growth of the bacteria at the IC50 for biofilm inhibition. To construct this table the effect of the compounds on the growth curve of the bacteria was determined at a concentration equal to the IC50 for biofilm inhibtion, by using the Bioscreen system from Oy Growth Curves Ab Ltd.

The subject of assay [4] is S. Typhimurium ATCC14028. The format is cell-based, Salmonella Typhimurium. The following applies: 400 μM.
From the text: as §1

`O=[N+]([O-])c1ccc(C2(O)C[n+]3cccnc3N2C2CCCCCCCCCCC2)cc1.[Br-]` (stereo not shown) [Compound 69]: the Influence on growth result in assay [1] and in assay [2] was “∘” throughout.
Take `OC1(c2ccc(-c3ccccc3)cc2)C[n+]2cccnc2N1C1CCCC1.[Br-]` (stereo not shown) [R1=Cyclopentyl, R3=4-biphenylyl, R4=H, 1-cyclopentyl-2-hydroxy-2-(4-biphenylyl)-2,3-dihydro-1H-imidazo[1,2-a]pyrimidin-4-ium bromide]: the Influence on growth entry in assay [3] is on record as “x”.
On to `OC1(c2ccc(Cl)cc2)C[n+]2cccnc2N1C1CCCCC1.[Br-]` (stereo not shown) [Compound 64], for which the Influence on growth result in assay [3] was “x”.
Take `CCCCCCN1c2nccc[n+]2CC1(O)c1ccc([N+](=O)[O-])cc1.[Br-]` (stereo not shown) [Compound 34]: in assay [3], the Influence on growth result is given as “x”.
On to `OC1(c2ccc(I)cc2)C[n+]2cccnc2N1Cc1ccccc1.[Br-]` (stereo not shown) [Compound 73], for which the Influence on growth entry in assay [3] is reported as “x”. Further, the “Effect on growth at 400 μM” value in assay [4] is given as “∘”.
